{
  "source": "patent US8821862B2",
  "about": "“Soluble β-N-acetylglucosaminidase based antibiofilm compositions and uses thereof” (Kane Biotech Inc., priority 2002, dated 2014)",
  "key": {"[1]": {"system": "E. coli", "experiment": "Adhesion assay with coated silicone catheter segments", "format": "cell-based, Escherichia coli", "settings": "silicone catheter coated with TCSN 10 mg/ml alone versus DispersinB 40 μg/ml alone", "experimental": "(§1) The adhesion assay was performed to determine the synergistic effect of DispersinB™ and TCSN combination coated silicone catheters on S. epidermidis and E. coli colonization. The silicone catheter segments (1 cm each) were coated by dipping in DispersinB™ (40 μg/ml) and TCSN (10 mg/ml in 10% Polyethylene glycol) alone and in combination for overnight at 4° C. followed by drying at room temperature. The coated and uncoated segments were incubated in S. epidermidis and E. coli culture in TSB medium at 37° C. for 24 hours at 100 rpm. After 24 hours of incubation, the sections were washed three times gently. Each washed section was transferred into a sterile tube containing 1 ml sterile saline and subjected to sonication for 30 seconds and followed by 1 minute vortexing. Further, it was serially diluted using sterile saline and plated using Tryptic Soy Agar (TSA) plates. The plates were incubated at 37° C. for 24 hours and the colonies (CFU) were counted."}, "[2]": {"system": "S. aureus 120", "experiment": "MIC, clinical isolates of wound-associated pathogens", "format": "cell-based", "settings": "Staphylococcus aureus; triclosan in the presence of DispersinB 40 μg/ml; clinical isolate S. aureus 120", "experimental": "(§2) The combined antimicrobial activity of DispersinB™ and triclosan was studied by determining minimal inhibitory concentrations (MIC) in a 96 well microtiter plate. Briefly, serial two-fold dilutions of triclosan and in presence of DispersinB™ (40 μg/ml) were performed in TSB. A suspension of each microorganism from Table 1 was added to wells at a concentration of 5×10^5 CFU/mL, and the microtiter plates were incubated at 37° C. The MIC was defined, as the lowest concentration of an antimicrobial required for total inhibition of a test microorganism at 37° C. Triclosan in combination with DispersinB™ was active against all the pathogens tested.\n(§3) The antimicrobial activity of DispersinB™ and triclosan combination was studied by determining the minimal inhibitory concentrations (MIC) in 96 well microtiter plates as described in Example 4. Triclosan in combination with DispersinB™ was active against all the pathogens tested (Table 2)."}, "[3]": {"system": "S. aureus Gav 16A", "experiment": "MIC, clinical isolates of wound-associated pathogens", "format": "cell-based", "settings": "Staphylococcus aureus, GAV16A; triclosan in the presence of DispersinB 40 μg/ml; clinical isolate S. aureus Gav 16A", "experimental": "as §2, §3"}, "[4]": {"system": "S. aureus 68", "experiment": "MIC, clinical isolates of wound-associated pathogens", "format": "cell-based", "settings": "Staphylococcus aureus; triclosan in the presence of DispersinB 40 μg/ml; clinical isolate S. aureus 68", "experimental": "as §2, §3"}, "[5]": {"system": "Coagulase-negative staphylococci (CNS 11)", "experiment": "MIC, clinical isolates of wound-associated pathogens", "format": "cell-based", "settings": "triclosan in the presence of DispersinB 40 μg/ml; clinical isolate CNS 11", "experimental": "as §2, §3"}, "[6]": {"system": "Enterobacter cloacae", "experiment": "MIC in 96 well microtiter plate", "format": "cell-based", "settings": "triclosan in the presence of DispersinB 40 μg/ml, 37° C.", "experimental": "as §2"}, "[7]": {"system": "S. epidermidis", "experiment": "MIC in 96 well microtiter plate", "format": "cell-based", "settings": "Staphylococcus epidermidis, triclosan in the presence of DispersinB 40 μg/ml, 37° C.", "experimental": "as §2"}, "[8]": {"system": "C. albicans", "experiment": "MIC in 96 well microtiter plate", "format": "cell-based", "settings": "Candida albicans, triclosan in the presence of DispersinB 40 μg/ml, 37° C.", "experimental": "as §2"}, "[9]": {"system": "E. faecium", "experiment": "MIC in 96 well microtiter plate", "format": "cell-based", "settings": "Enterococcus faecium, triclosan in the presence of DispersinB 40 μg/ml, 37° C.", "experimental": "as §2"}, "[10]": {"system": "E. faecalis", "experiment": "MIC in 96 well microtiter plate", "format": "cell-based", "settings": "Enterococcus faecalis, triclosan in the presence of DispersinB 40 μg/ml, 37° C.", "experimental": "as §2"}, "[11]": {"system": "K. pneumoniae", "experiment": "MIC in 96 well microtiter plate", "format": "cell-based", "settings": "Klebsiella pneumoniae, triclosan in the presence of DispersinB 40 μg/ml, 37° C.", "experimental": "as §2"}, "[12]": {"system": "E. coli", "experiment": "MIC in 96 well microtiter plate", "format": "cell-based", "settings": "Escherichia coli, triclosan in the presence of DispersinB 40 μg/ml, 37° C.", "experimental": "as §2"}, "[13]": {"system": "P. mirabilis", "experiment": "MIC in 96 well microtiter plate", "format": "cell-based", "settings": "Proteus mirabilis, triclosan in the presence of DispersinB 40 μg/ml, 37° C.", "experimental": "as §2"}, "[14]": {"system": "S. aureus", "experiment": "MIC in 96 well microtiter plate", "format": "cell-based", "settings": "Staphylococcus aureus, triclosan in the presence of DispersinB 40 μg/ml, 37° C.", "experimental": "as §2"}, "[15]": {"system": "S. epidermidis", "experiment": "Adhesion assay with coated silicone catheter segments", "format": "cell-based, Staphylococcus epidermidis", "settings": "silicone catheter coated with TCSN 10 mg/ml alone versus DispersinB 40 μg/ml alone", "experimental": "as §1"}, "[16]": {"system": "CNS 82", "experiment": "MIC, clinical isolates of wound-associated pathogens", "format": "cell-based, Coagulase-negative staphylococci", "settings": "triclosan in the presence of DispersinB 40 μg/ml; clinical isolate CNS 82", "experimental": "as §2, §3"}, "[17]": {"system": "CNS 42", "experiment": "MIC, clinical isolates of wound-associated pathogens", "format": "cell-based, Coagulase-negative staphylococci", "settings": "triclosan in the presence of DispersinB 40 μg/ml; clinical isolate CNS 42", "experimental": "as §2, §3"}},
  "data": [
    {"smiles": "Oc1cc(Cl)ccc1Oc1ccc(Cl)cc1Cl", "note": "[triclosan]", "values": [
      {"measurement": "inhibiting the growth of biofilm-embedded E. coli, coating alone", "setting": "[1]", "result": "more effective than DispersinB™"},
      {"measurement": "MIC", "setting": "[2]", "result": "< 0.39", "unit": "µg/mL"},
      {"measurement": "MIC", "setting": "[3]", "result": "< 0.39", "unit": "µg/mL"},
      {"measurement": "MIC", "setting": "[4]", "result": "< 0.39", "unit": "µg/mL"},
      {"measurement": "MIC", "setting": "[5]", "result": 25, "unit": "µg/mL"},
      {"measurement": "MIC", "setting": "[6]", "result": 25, "unit": "µg/mL"},
      {"measurement": "MIC", "setting": "[7]", "result": 3.12, "unit": "µg/mL"},
      {"measurement": "MIC", "setting": "[8]", "result": 100, "unit": "µg/mL"},
      {"measurement": "MIC", "setting": "[9]", "result": 12.5, "unit": "µg/mL"},
      {"measurement": "MIC", "setting": "[10]", "result": 100, "unit": "µg/mL"},
      {"measurement": "MIC", "setting": "[11]", "result": 25, "unit": "µg/mL"},
      {"measurement": "MIC", "setting": "[12]", "result": 6.25, "unit": "µg/mL"},
      {"measurement": "MIC", "setting": "[13]", "result": 12.5, "unit": "µg/mL"},
      {"measurement": "MIC", "setting": "[14]", "result": "< 0.097", "unit": "µg/mL"},
      {"measurement": "inhibiting the growth of biofilm-embedded S. epidermidis, coating alone", "setting": "[15]", "result": "more effective than DispersinB™"},
      {"measurement": "MIC", "setting": "[16]", "result": "< 0.39", "unit": "µg/mL"},
      {"measurement": "MIC", "setting": "[17]", "result": 0.625, "unit": "µg/mL"}
    ]}
  ]
}
